The subject of test [1] is Ras-CVLS processing in COS monkey kidney cells. As to the kind of experiment: COS cell assay: inhibition of Ras-CVLS processing (Western blot). The format is cell-based. The source says: • 1. In vitro enzyme assays: Inhibition of farnesyl protein transferase and geranylgeranyl protein transferase. Both farnesyl protein transferase (FPT) and geranylgeranyl protein transferase (GGPT) I were partially purified from rat brain by ammonium sulfate fractionation followed by Q-Sepharose (Pharmacia, Inc.) anion exchange chromatography essentially as described by Yokoyama et al (Yokoyama, K., et al., (1991), A protein geranylgeranyltransferase from bovine brain: Implications for protein prenylation specificity, Proc. Natl. Acad. Sci USA 88: 5302-5306, the disclosure of which is incorporated herein by reference thereto). Human farnesyl protein transferase was also expressed in E. coli, using cDNA clones encoding both the a and b subunits. The methods used were similar to those published (Omer, C. et al., (1993), Characterization of recombinant human farnesyl protein transferase: Cloning, expression, farnesyl diphosphate binding, and functional homology with yeast prenyl-protein transferases, Biochemistry 32:5167-5176). Human farnesyl protein transferase was partially-purified from the soluble protein fraction of E. coli as described above. […] Two forms of val^12-Ha-Ras protein were prepared as substrates for these enzymes, differing in their carboxy terminal sequence. One form terminated in cysteine-valine-leucine-serine (Ras-CVLS) the other in cystein-valine-leucine-leucine (Ras-CVLL). Ras-CVLS is a substrate for the farnesyl protein transferase while Ras-CVLL is a substrate for geranylgeranyl protein transferase I. The cDNAs encoding these proteins were constructed so that the proteins contain an amino-terminal extension of 6 histidine residues. Both proteins were expressed in Escherichia coli and purified using metal chelate affinity chromatography. The radiolabelled isoprenyl pyrophosphate substrates, [^3H]farnesyl pyrophosphate and [^3H]geranylgeranyl pyrophosphate, were purchased from DuPont/New England Nuclear. Several methods for measuring farnesyl protein transferase activity have been described (Reiss et al 1990, Cell 62: 81; Schaber et al 1990, J. Biol. Chem. 265: 14701; Manne et al 1990, PNAS 87: 7541; and Barbacid & Manne 1993, U.S. Patent No. 5,185,248). […] The reaction was allowed to proceed for 30 minutes at room temperature and then stopped with 0.5 ml of 4% sodium dodecyl sulfate (SDS) followed by 0.5 ml of cold 30% TCA. Samples were allowed to sit on ice for 45 minutes and precipitated Ras protein was then collected on GF/C filter paper mats using a Brandel cell harvester. Filter mats were washed once with 6% TCA, 2% SDS and radioactivity was measured in a Wallac 1204 Betaplate BS liquid scintillation counter. Percent inhibition was calculated relative to the DMSO vehicle control. The geranylgeranyl protein transferase I assay was essentially identical to the farnesyl protein transferase assay described above, with two exceptions: [^3H]geranylgeranylpyrophosphate replaced farnesyl pyrophosphate as the isoprenoid donor and Ras-CVLL was the protein acceptor. […] Cell-Based Assay: Transient expression of val^12-Ha-Ras-CVLS and val^12-Ha-Ras-CVLL in COS monkey kidney cells: Effect of farnesyl protein transferase inhibitors on Ras processing and on disordered cell growth induced by transforming Ras. COS monkey kidney cells were transfected by electroporation with the plasmid pSV-SPORT (Gibco/BRL) containing a cDNA insert encoding either Ras-CVLS or Ras-CVLL, leading to transient overexpression of a Ras substrate for either farnesyl protein transferase or geranylgeranyl protein transferase I, respectively (see above). Following electroporation, cells were plated into 6-well tissue culture dishes containing 1.5 ml of Dulbecco's-modified Eagle's media (GIBCO, Inc.) supplemented with 10% fetal calf serum and the appropriate farnesyl protein transferase inhibitors. After 24 hours, media was removed and fresh media containing the appropriate drugs was re-added.

For test [2], the target named is T1, farnesyl protein transferase (FPT) (Rattus norvegicus, UniProt Q02293+Q04631).
T1 construct: were partially purified from rat brain by ammonium sulfate fractionation followed by Q-Sepharose; from tissue; host or cells: rat brain
In words: In vitro enzyme assay: inhibition of farnesyl protein transferase (transfer of [3H]farnesyl to Ras-CVLS). The format is biochemical. To be noted: partially purified rat brain FPT, Ras-CVLS. On the procedure: • 1. In vitro enzyme assays: Inhibition of farnesyl protein transferase and geranylgeranyl protein transferase. […] Human farnesyl protein transferase was also expressed in E. coli, using cDNA clones encoding both the a and b subunits. […] Human farnesyl protein transferase was partially-purified from the soluble protein fraction of E. coli as described above. […] Two forms of val^12-Ha-Ras protein were prepared as substrates for these enzymes, differing in their carboxy terminal sequence. One form terminated in cysteine-valine-leucine-serine (Ras-CVLS) the other in cystein-valine-leucine-leucine (Ras-CVLL). Ras-CVLS is a substrate for the farnesyl protein transferase while Ras-CVLL is a substrate for geranylgeranyl protein transferase I. The cDNAs encoding these proteins were constructed so that the proteins contain an amino-terminal extension of 6 histidine residues. Both proteins were expressed in Escherichia coli and purified using metal chelate affinity chromatography. The radiolabelled isoprenyl pyrophosphate substrates, [^3H]farnesyl pyrophosphate and [^3H]geranylgeranyl pyrophosphate, were purchased from DuPont/New England Nuclear. […] The reaction was allowed to proceed for 30 minutes at room temperature and then stopped with 0.5 ml of 4% sodium dodecyl sulfate (SDS) followed by 0.5 ml of cold 30% TCA. Samples were allowed to sit on ice for 45 minutes and precipitated Ras protein was then collected on GF/C filter paper mats using a Brandel cell harvester. […] Percent inhibition was calculated relative to the DMSO vehicle control. The geranylgeranyl protein transferase I assay was essentially identical to the farnesyl protein transferase assay described above, with two exceptions: [^3H]geranylgeranylpyrophosphate replaced farnesyl pyrophosphate as the isoprenoid donor and Ras-CVLL was the protein acceptor. […] Cell-Based Assay: Transient expression of val^12-Ha-Ras-CVLS and val^12-Ha-Ras-CVLL in COS monkey kidney cells: Effect of farnesyl protein transferase inhibitors on Ras processing and on disordered cell growth induced by transforming Ras. COS monkey kidney cells were transfected by electroporation with the plasmid pSV-SPORT (Gibco/BRL) containing a cDNA insert encoding either Ras-CVLS or Ras-CVLL, leading to transient overexpression of a Ras substrate for either farnesyl protein transferase or geranylgeranyl protein transferase I, respectively (see above). Following electroporation, cells were plated into 6-well tissue culture dishes containing 1.5 ml of Dulbecco's-modified Eagle's media (GIBCO, Inc.) supplemented with 10% fetal calf serum and the appropriate farnesyl protein transferase inhibitors. After 24 hours, media was removed and fresh media containing the appropriate drugs was re-added. 48 hours after electroporation cells were examined under the microscope to monitor disordered cell growth induced by transforming Ras. Cells expressing transforming Ras become more rounded and refractile and overgrow the monolayer, reminiscent of the transformed phenotype. Cells were then photographed, washed twice with 1 ml of cold phosphate-buffered saline (PBS) and removed from the dish by scraping with a rubber policeman into 1 ml of a buffer containing 25 mM Tris, pH 8.0; 1 mM ethylenediamine tetraacetic acid; 1 mM phenylmethylsulfonyl fluoride; […] leupeptin; and 0.1 mM pepstatin. Cells were lysed by homogenization and cell debris was removed by centrifugation at 2000 x g for 10 min. Cellular protein was precipitated by addition of ice-cold trichloroacetic acid and redissolved in […] of SDS-electrophoresis sample buffer. […] Proteins resolved on the gels were electroblotted onto nitrocellulose membranes for immunodetection. […] After washing, membranes were incubated for one hour at room temperature with a 1:5000 dilution of secondary antibody, rabbit anti-rat IgG conjugated to horseradish peroxidase, in PBS containing 1% fetal calf serum.

The test system of test [3] is SW620-BAG human colon carcinoma cells expressing an activated K-ras gene. In words: Cell Mat Assay, SW620 tumor cells. The class given is cell-based.
Test [4] concerns DLD-1-BAG human colon carcinoma cells expressing as activated K-ras gene. In words: Cell Mat Assay, DLD-1 tumor cells. The class given is cell-based.
The subject of test [5] is T24-BAG4 human bladder carcinoma cells expressing an activated H-ras gene. As to the kind of experiment: Cell Mat Assay, T24 tumor cells. The format is cell-based. To be noted: read-out: Tumor (T-24) IC50.
Test [6] deals with Normal human HEPM fibroblasts. In words: Cell Mat Assay, normal cell mat. The class given is cell-based. To be noted: normal monolayer.
Test [7] deals with DLD-1 (human colon carcinoma cells, ATCC # CCL 221). As to the kind of experiment: In Vivo Anti-Tumor Studies, subcutaneous DLD-1 tumors. Set-up: species or system athymic nu/nu female mice. To be noted: Mus musculus, DLD-1, po, QID, 4 weeks, range over the listed compounds; for inhibition in vivo at 10 mg/kg: 10 mg/kg p.o.; for inhibition in vivo at 50 mg/kg: 50 mg/kg p.o. The source says:
Tumor cells (5 X 10^5 to 8 X 10^6) of DLD-1 (human colon carcinoma cells, ATCC # CCL 221) are innolculated subcutaneously into the flank of 5-6 week o;d athymic nu/nu female mice.

Where [8] appears, read: Homo sapiens, SW-620, Mat assay.

SMILES strings stand for the structures. pIC50: −log10 of the molar value. Where a name gives a salt, the structure may show the parent alone. Read-outs that look alike come from different tables or passages of the source. Some results are limits rather than exact numbers.

In turn, `O=C(Cc1cc[n+]([O-])cc1)N1CCN(C2c3ncc(Br)cc3CCc3cccc(Cl)c32)CC1` (single isomer, unassigned) [Example 20] had a pIC50 in test [1] (Primates, COS) of about 7.52.
Take `O=C(Cc1cc[n+]([O-])cc1)N1CCN(C2c3ncc(Br)cc3CCc3cc(Cl)cc(Br)c32)CC1` (racemic) [Example 11]: the pIC50 is 8.70 in test [2] (Table 1, read-out: FPT IC50) and over 6.60 in test [1] (Primates, COS).
In the case of `NC(=O)N1CCC(CC(=O)N2CCC(C3c4ccc(Cl)c(Br)c4CCc4cc(Br)cnc43)CC2)CC1` (single isomer, unassigned) [Example 13A], the pIC50 in test [3] (Mat assay) was 5.20; in test [4] (Homo sapiens, DLD-1, Mat assay) it was 5.20; in test [1], under 6.00.
Regarding `O=C(Cc1cc[n+]([O-])cc1)N1CCC(C2c3ncc(Br)cc3CCc3cc(Cl)cc(Br)c32)CC1` (single isomer, unassigned) [Example 9A], the pIC50 was over 5.80 in test [5] (Homo sapiens) and 6.07 in test [1] (Primates, COS).
On to `NC(=O)N1CCC(CC(=O)N2CCC(C3c4ncc(Br)cc4CCc4cc(Cl)cc(Br)c43)CC2)CC1` (centres unmarked) [Example 10B], for which the pIC50 was under 4.60 in test [6], over 5.80 in test [5], 5.80 in test [3] (Mat assay) and 5.80 in test [4] (Mat assay).
`NC(=O)N1CCC(CC(=O)N2CCN([C@H]3c4ccc(Cl)c(Br)c4CCc4cc(Br)cnc43)CC2)CC1` [Example 6] showed an inhibition in vivo at 10 mg/kg in test [7] of 7 to 50%. The compound also gave an inhibition in vivo at 50 mg/kg in test [7] of 35.4 to 83%. The pIC50 in test [2] (Table 1, read-out: FPT IC50) is 8.51; in test [5] (Homo sapiens), over 5.80; in test [3] (setting [8]), 5.20; in test [4] (Homo sapiens, DLD-1, Mat assay), 5.40; in test [1] (Primates, COS), 7.40.
As for `O=C(Cc1cc[n+]([O-])cc1)N1CCC(=C2c3ncc(Br)cc3CCc3cc(Cl)cc(Br)c32)CC1` (single isomer, unassigned) [Example 7A], the inhibition in vivo at 10 mg/kg in test [7] was in the range of 7 to 50%. Also, the inhibition in vivo at 50 mg/kg in test [7] is 35.4 to 83%. The pIC50 in test [2] (FPT IC50, Table 1) was under 7.00; in test [6] it was under 4.60; in test [5] it was over 5.80; in test [1], under 6.00.
As for `O=C(Cc1cc[n+]([O-])cc1)N1CCN(C2c3ccc(Cl)c(Br)c3CCc3cc(Br)cnc32)CC1` (centres unmarked) [5 • HCl salt], the pIC50 is 8.42 in test [2] (Table 1, read-out: FPT IC50) and 8.00 in test [1] (Primates, COS).
In the same order, the values of `O=C(Cc1cc[n+]([O-])cc1)N1CCN(C2c3ncc(Br)cc3CCc3cc(Cl)cc(F)c32)CC1` (centres unmarked) [Example 21] are 8.08 and 6.38.
Consider `O=C(Cc1cc[n+]([O-])cc1)N1CCC(C2c3ccc(Cl)c(Br)c3CCc3cc(Br)cnc32)CC1` (centres unmarked) [14A • HCl salt], for which the pIC50 is over 8.51 in test [2] (Table 1, read-out: FPT IC50) and 7.82 in test [1].
For `NC(=O)N1CCC(CC(=O)N2CCC(C3c4ccc(Cl)c(Br)c4CCc4cc(Br)cnc43)CC2)CC1` (single isomer, unassigned) [Example 13B], the pIC50 was over 5.80 in test [5] (Homo sapiens) and under 5.51 in test [3] (setting [8]).
`O=C(Cc1cc[n+]([O-])cc1)N1CCC(C2c3ccc(Cl)c(Br)c3CCc3cc(Br)cnc32)CC1` (centres unmarked) [Example 14B] had a pIC50 in test [2] (FPT IC50, Table 1) of 8.30.
Turning to `O=C(Cc1cc[n+]([O-])cc1)N1CCN(C2c3ncc(Br)cc3CCc3cc(Cl)cc(Cl)c32)CC1` (single isomer, unassigned) [Example 19], the pIC50 in test [2] (Table 1, read-out: FPT IC50) was over 8.42; in test [6] (Homo sapiens, Fibroblast) it was under 4.60; in test [5] (Homo sapiens) it was over 5.80; in test [3] (setting [8]), 5.20; in test [4] (Homo sapiens, DLD-1, Mat assay), over 5.80.
Compound `NC(=O)N1CCC(CC(=O)N2CCC(C3c4ccc(Cl)cc4C=Cc4cc(Br)cnc43)CC2)CC1` (centres unmarked) [Example 1] yielded an inhibition in vivo at 10 mg/kg in test [7] of 7 to 50%. For the same compound, the inhibition in vivo at 50 mg/kg in test [7] lay in the range of 35.4 to 83%. Moreover, the pIC50 in test [2] (Table 1, read-out: FPT IC50) is over 7.47; in test [6] (Homo sapiens, Fibroblast) it was under 4.60; in test [5] (Homo sapiens), over 5.80.
For the compound `O=C(Cc1cc[n+]([O-])cc1)N1CCC(C2c3ncc(Br)cc3CCc3cc(Cl)cc(Br)c32)CC1` (centres unmarked) [Example 9B], the pIC50 in test [2] (FPT IC50, Table 1) is 8.52.
As for `NC(=O)N1CCC(CC(=O)N2CCC([C@@H]3c4ncc(Br)cc4CCc4cc(Cl)cc(Br)c43)CC2)CC1` [Example 10A], the pIC50 is 5.10 in test [6], over 5.80 in test [5] and 5.80 in test [3] (Mat assay).
Turning to `NC(=O)N1CCC(CC(=O)N2CCN([C@@H]3c4ccc(Cl)cc4CCc4cc(Br)cnc43)CC2)CC1` [Example 17], the pIC50 was 7.37 in test [2] (Table 1, read-out: FPT IC50); under 4.60 in test [6] (Homo sapiens, Fibroblast); 5.80 in test [5] (Homo sapiens); 5.20 in test [4] (Homo sapiens, DLD-1, Mat assay); 6.46 in test [1] (Primates, COS).
